Data reported in patent US20200247794A1, “PHARMACOPHORES, COMPOUNDS AND METHODS HAVING APPLICATION IN THE TREATMENT OF CANCER THROUGH INHIBITION OF CYP17A1 AND CYP19A1” (MANGOSUTHU UNIVERSITY OF TECHNOLOGY, priority 2015, published 2020).

Assays:
[1] = system: CYP1A2, CYP2C9, CYP2C19, CYP2D6, and CYP3A4; experiment: CYP inhibition against major 5 human liver CYPs (panel, summary in words); format: in vitro ADME; settings: drug-drug interaction remark
CYP17A1 = target: T1, CYP17A1 (Homo sapiens, UniProt P05093); experiment: CYP17A1 inhibition (CYP17A1 bactosomes, progesterone substrate, LC-MS/MS); format: biochemical; set-up: purchased Cypex, Dundee, UK; host or cells: bacterial membranes (bactosomes)
T1 sequence (P05093 1-508): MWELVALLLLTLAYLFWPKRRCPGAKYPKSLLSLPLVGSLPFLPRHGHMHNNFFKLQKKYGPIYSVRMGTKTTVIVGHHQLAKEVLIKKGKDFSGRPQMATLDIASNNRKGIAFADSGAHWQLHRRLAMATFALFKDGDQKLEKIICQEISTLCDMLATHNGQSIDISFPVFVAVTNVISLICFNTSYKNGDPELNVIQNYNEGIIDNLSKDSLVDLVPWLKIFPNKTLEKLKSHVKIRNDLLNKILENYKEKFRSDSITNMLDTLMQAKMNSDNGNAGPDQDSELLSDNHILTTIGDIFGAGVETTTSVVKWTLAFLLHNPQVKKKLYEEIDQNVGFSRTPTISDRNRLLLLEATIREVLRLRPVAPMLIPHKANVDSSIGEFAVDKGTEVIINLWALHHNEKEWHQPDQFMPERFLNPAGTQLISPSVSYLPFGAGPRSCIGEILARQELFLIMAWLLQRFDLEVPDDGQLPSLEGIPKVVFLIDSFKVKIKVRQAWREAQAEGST
Experimental: CYP17A1 inhibition was measured using 20 pmol/ml CYP17A1 bactosomes (Cypex, Dundee, UK) and 0.1 μM progesterone as a substrate and 1 mM NADPH in 50 mM potassium phosphate buffer pH 7.4 containing 5 mM magnesium chloride. Inhibitors were dissolved in DMSO and serially diluted in seven ½ log steps, final concentrations ranging from 50 μM to 50 nM. Reaction volume was 100 μl and final DMSO concentration was 1% (v/v). Reactions were started by the addition of NADPH and incubated at 37° C. for 20 minutes with shaking at 1800 rpm on a Bioshake IQ (Q-Instruments, Jena, Germany). Reactions were terminated by the addition of 200 μl methanol containing 1 μM tolbutamide as an internal standard.

CYP3A4 = target: T2, CYP3A4 (Homo sapiens, UniProt P08684); experiment: CYP inhibition, 5 CYP bactosome mix: CYP3A4 (midazolam); format: in vitro ADME; settings: midazolam 2.5 μM
T2 construct: purchased Cypex, Dundee CYP/XG001, Batch XG001001; host or cells: E. coli
T2 sequence (P08684 whole entry): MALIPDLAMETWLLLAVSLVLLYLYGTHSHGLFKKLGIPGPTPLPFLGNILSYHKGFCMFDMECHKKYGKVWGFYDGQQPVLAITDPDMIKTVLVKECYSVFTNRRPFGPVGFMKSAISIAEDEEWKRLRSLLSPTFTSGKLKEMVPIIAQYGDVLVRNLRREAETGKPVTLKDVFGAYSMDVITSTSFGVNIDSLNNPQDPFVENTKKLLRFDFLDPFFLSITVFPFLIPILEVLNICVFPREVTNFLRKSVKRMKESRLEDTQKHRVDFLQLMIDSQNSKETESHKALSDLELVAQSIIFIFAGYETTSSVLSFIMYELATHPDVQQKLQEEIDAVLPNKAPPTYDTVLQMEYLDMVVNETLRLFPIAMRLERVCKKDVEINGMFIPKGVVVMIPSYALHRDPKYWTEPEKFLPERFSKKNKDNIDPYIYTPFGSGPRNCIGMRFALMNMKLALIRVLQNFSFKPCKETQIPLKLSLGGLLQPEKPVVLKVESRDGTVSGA
Text: (§1) CYP Inhibition Against Major 5 Human Liver CYPs in E. coli CYPEX Membranes
The final DMSO concentration was 1%.

CYP1A2 = target: T3, CYP1A2 (Homo sapiens, UniProt P05177); experiment: CYP inhibition, 5 CYP bactosome mix: CYP1A2 (tacrine); format: in vitro ADME; settings: tacrine 0.5 μM
T3 construct: purchased Cypex, Dundee CYP/XG001, Batch XG001001; host or cells: E. coli
T3 sequence (P05177 1-516): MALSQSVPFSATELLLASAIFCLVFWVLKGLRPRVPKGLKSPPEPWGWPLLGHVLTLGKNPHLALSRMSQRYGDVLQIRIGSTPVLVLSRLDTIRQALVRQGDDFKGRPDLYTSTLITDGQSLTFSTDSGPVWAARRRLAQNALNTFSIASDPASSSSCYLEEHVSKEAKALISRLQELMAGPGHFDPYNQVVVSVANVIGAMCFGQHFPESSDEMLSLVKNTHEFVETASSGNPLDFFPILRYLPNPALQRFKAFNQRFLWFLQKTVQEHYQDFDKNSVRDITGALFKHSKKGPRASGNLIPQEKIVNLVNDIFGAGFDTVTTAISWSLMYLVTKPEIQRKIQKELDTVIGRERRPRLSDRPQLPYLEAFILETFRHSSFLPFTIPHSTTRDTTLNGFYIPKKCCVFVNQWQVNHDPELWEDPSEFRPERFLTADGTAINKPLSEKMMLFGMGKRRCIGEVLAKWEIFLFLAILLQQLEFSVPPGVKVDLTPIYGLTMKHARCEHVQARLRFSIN
Text: as §1
The final DMSO concentration was 1%.

CYP2D6 = target: T4, CYP2D6 (Homo sapiens, UniProt P10635); experiment: CYP inhibition, 5 CYP bactosome mix: CYP2D6 (bufuralol); format: in vitro ADME; settings: bufuralol 10 μM
T4 construct: purchased Cypex, Dundee CYP/XG001, Batch XG001001; host or cells: E. coli
T4 sequence (P10635 whole entry): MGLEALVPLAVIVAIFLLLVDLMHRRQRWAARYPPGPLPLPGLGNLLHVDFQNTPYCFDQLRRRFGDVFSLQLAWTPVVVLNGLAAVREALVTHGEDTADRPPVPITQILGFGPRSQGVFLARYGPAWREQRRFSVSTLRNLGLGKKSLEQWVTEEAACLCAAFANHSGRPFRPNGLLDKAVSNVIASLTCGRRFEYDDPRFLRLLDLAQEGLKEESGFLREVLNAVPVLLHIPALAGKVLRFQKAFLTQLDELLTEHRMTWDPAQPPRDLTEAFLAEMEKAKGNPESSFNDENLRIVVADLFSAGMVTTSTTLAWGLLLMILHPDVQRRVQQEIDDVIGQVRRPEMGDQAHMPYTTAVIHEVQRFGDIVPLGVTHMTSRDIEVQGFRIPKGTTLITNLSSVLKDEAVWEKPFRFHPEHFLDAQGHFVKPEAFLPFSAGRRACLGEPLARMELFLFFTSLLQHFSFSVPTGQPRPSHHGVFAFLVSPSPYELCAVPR
Text: as §1
The final DMSO concentration was 1%.

CYP2C19 = target: T5, CYP2C19 (Homo sapiens, UniProt P33261); experiment: CYP inhibition, 5 CYP bactosome mix: CYP2C19 ((S)-mephenytoin); format: in vitro ADME; settings: (S)-mephenytoin 40 μM
T5 construct: purchased Cypex, Dundee CYP/XG001, Batch XG001001; host or cells: E. coli
T5 sequence (P33261 whole entry): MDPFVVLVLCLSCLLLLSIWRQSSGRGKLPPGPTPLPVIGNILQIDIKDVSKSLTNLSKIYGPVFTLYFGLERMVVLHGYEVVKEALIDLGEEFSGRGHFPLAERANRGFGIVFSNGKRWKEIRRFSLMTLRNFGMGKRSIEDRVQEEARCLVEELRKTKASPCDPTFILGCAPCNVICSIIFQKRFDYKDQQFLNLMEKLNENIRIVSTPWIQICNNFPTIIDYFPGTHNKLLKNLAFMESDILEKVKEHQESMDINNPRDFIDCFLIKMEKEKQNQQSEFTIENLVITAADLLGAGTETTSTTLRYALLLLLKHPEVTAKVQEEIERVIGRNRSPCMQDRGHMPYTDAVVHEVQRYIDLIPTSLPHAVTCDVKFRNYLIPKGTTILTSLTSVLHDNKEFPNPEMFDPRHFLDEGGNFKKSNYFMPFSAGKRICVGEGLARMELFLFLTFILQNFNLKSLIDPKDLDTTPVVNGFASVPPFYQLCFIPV
Text: as §1
The final DMSO concentration was 1%.

Solubility in DMSO = format: physicochemical

inhibition of metabolic CYP450 isoforms (in words) [1]: inhibit various CYP450 isoforms
IC50 (CYP17A1; 20 pmol/ml bactosomes, 0.1 μM progesterone, 50 μM to 50 nM): > 34.1 µM
inhibitory potency of CYP17A1 (in words) (CYP17A1; summary of Table 2): micromolar levels
IC50 (CYP3A4): 2.7 µM
IC50 (CYP1A2): 12.6 µM
IC50 (CYP2D6): 15 µM
IC50 (CYP2C19): 8.3 µM
Soluble in DMSO (Solubility in DMSO): Yes
Structure (SMILES): Cc1nc(SC(C(=O)c2c[nH]c3ccccc23)c2ccccc2)sc1CC(N)=O (racemic) [Compound 3, 2-(2-{[2-(1H-indol-3-yl)-2-oxo-1-phenylethyl]sulfanyl}-4-methyl-1,3-thiazol-5-yl)acetamide]
safety profile (Toxicity studies): reasonably good safety profiles
